# Laboratory results: ChEMBL document CHEMBL1201862, “PubChem BioAssay data set” (2004)
#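 Briefly, cells in 96-well plates were exposed to five compound concentrations for 48 h, and endpoints were estimated by linear interpolation. GI50: concentration for 50% inhibition of growth.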 Active and inactive are the calls of the source. No stated cut-off is given here; in the data, active = GI50 up to about 1.1 µM and inactive = higher.
# Experiments:
# Test in all cases: inhibition of tumour cell growth, NCI panel, 48 h
# 786-0 = test system: 786-0
# A498 = test system: A498
# A549 = test system: A549
# ACHN = test system: ACHN
# BT-549 = test system: BT-549
# CAKI-1 = test system: CAKI-1
# CCRF-CEM = test system: CCRF-CEM
# COLO 205 = test system: COLO 205
# DU-145 = test system: DU-145
# EKVX = test system: EKVX
# HCC 2998 = test system: HCC 2998
# HCT-116 = test system: HCT-116
# HCT-15 = test system: HCT-15
# HL-60 = test system: HL-60
# HOP-62 = test system: HOP-62
# HOP-92 = test system: HOP-92
# HT-29 = test system: HT-29
# Hs-578T = test system: Hs-578T
# IGROV-1 = test system: IGROV-1
# K562 = test system: K562
# KM12 = test system: KM12
# LOX IMVI = test system: LOX IMVI
# M14 = test system: M14
# MCF7 = test system: MCF7
# MDA-MB-435 = test system: MDA-MB-435
# MDA-N = test system: MDA-N
# MOLT-4 = test system: MOLT-4
# Malme-3M = test system: Malme-3M
# NCI-H226 = test system: NCI-H226
# NCI-H23 = test system: NCI-H23
# NCI-H460 = test system: NCI-H460
# NCI-H522 = test system: NCI-H522
# NCI/ADR-RES = test system: NCI/ADR-RES
# OVCAR-3 = test system: OVCAR-3
# OVCAR-4 = test system: OVCAR-4
# OVCAR-5 = test system: OVCAR-5
# OVCAR-8 = test system: OVCAR-8
# PC-3 = test system: PC-3
# RPMI-8226 = test system: RPMI-8226
# RXF 393 = test system: RXF 393
# SF-268 = test system: SF-268
# SF-295 = test system: SF-295
# SF-539 = test system: SF-539
# SK-MEL-28 = test system: SK-MEL-28
# SK-MEL-2 = test system: SK-MEL-2
# SK-MEL-5 = test system: SK-MEL-5
# SK-OV-3 = test system: SK-OV-3
# SN12C = test system: SN12C
# SNB-19 = test system: SNB-19
# SNB-75 = test system: SNB-75
# SR = test system: SR
# SW-620 = test system: SW-620
# T47D = test system: T47D
# TK-10 = test system: TK-10
# U-251 = test system: U-251
# UACC-257 = test system: UACC-257
# UACC-62 = test system: UACC-62
# UO-31 = test system: UO-31
# MDA-MB-231 = test system: MDA-MB-231
structure (smiles),measurement,setting,value
CCOP1(=O)C=C(Sc2ccc([N+](=O)[O-])cc2[N+](=O)[O-])C(C)(C)O1 (configuration not stated),GI50,786-0,8.81 µM (inactive)
same,GI50,A498,25.6 µM (inactive)
same,GI50,A549,19.9 µM (inactive)
same,GI50,ACHN,14.5 µM (inactive)
same,GI50,BT-549,17.5 µM (inactive)
same,GI50,CAKI-1,11.7 µM (inactive)
same,GI50,CCRF-CEM,2.42 µM (inactive)
same,GI50,COLO 205,10.5 µM (inactive)
same,GI50,DU-145,13.4 µM (inactive)
same,GI50,EKVX,14.4 µM (inactive)
same,GI50,HCC 2998,18.6 µM (inactive)
same,GI50,HCT-116,5.42 µM (inactive)
same,GI50,HCT-15,14.7 µM
same,GI50,HL-60,3.41 µM (inactive)
same,GI50,HOP-62,27.9 µM (inactive)
same,GI50,HOP-92,7.26 µM (inactive)
same,GI50,HT-29,8.39 µM (inactive)
same,GI50,Hs-578T,26.7 µM (inactive)
same,GI50,IGROV-1,16.5 µM (inactive)
same,GI50,K562,2.52 µM (inactive)
same,GI50,KM12,16.5 µM (inactive)
same,GI50,LOX IMVI,3.83 µM (inactive)
same,GI50,M14,11.9 µM (inactive)
same,GI50,MCF7,3.99 µM (inactive)
same,GI50,MDA-MB-435,11.4 µM (inactive)
same,GI50,MDA-N,5.07 µM (inactive)
same,GI50,MOLT-4,4.13 µM (inactive)
same,GI50,Malme-3M,12 µM (inactive)
same,GI50,NCI-H226,25.5 µM (inactive)
same,GI50,NCI-H23,18.3 µM (inactive)
same,GI50,NCI-H460,21 µM (inactive)
same,GI50,NCI-H522,3.64 µM (inactive)
same,GI50,NCI/ADR-RES,25.3 µM (inactive)
same,GI50,OVCAR-3,11.6 µM (inactive)
same,GI50,OVCAR-4,13.5 µM (inactive)
same,GI50,OVCAR-5,21.2 µM (inactive)
same,GI50,OVCAR-8,16.7 µM (inactive)
same,GI50,PC-3,11.9 µM (inactive)
same,GI50,RPMI-8226,5.25 µM (inactive)
same,GI50,RXF 393,17.9 µM (inactive)
same,GI50,SF-268,17.6 µM (inactive)
same,GI50,SF-295,17.9 µM (inactive)
same,GI50,SF-539,11.7 µM (inactive)
same,GI50,SK-MEL-28,16.2 µM (inactive)
same,GI50,SK-MEL-2,11.3 µM (inactive)
same,GI50,SK-MEL-5,9.86 µM (inactive)
same,GI50,SK-OV-3,27.2 µM (inactive)
same,GI50,SN12C,10.3 µM (inactive)
same,GI50,SNB-19,27.6 µM (inactive)
same,GI50,SNB-75,19.8 µM (inactive)
same,GI50,SR,3.59 µM (inactive)
same,GI50,SW-620,11.6 µM (inactive)
same,GI50,T47D,14.6 µM (inactive)
same,GI50,TK-10,17.1 µM (inactive)
same,GI50,U-251,14.9 µM (inactive)
same,GI50,UACC-257,12.3 µM (inactive)
same,GI50,UACC-62,11.5 µM (inactive)
same,GI50,UO-31,14.9 µM (inactive)
Cc1csc(NNC(N)=O)n1,GI50,786-0,> 100 µM (inactive)
same,GI50,A549,> 100 µM (inactive)
same,GI50,ACHN,> 100 µM (inactive)
same,GI50,BT-549,> 100 µM (inactive)
same,GI50,CAKI-1,> 100 µM (inactive)
same,GI50,CCRF-CEM,> 100 µM (inactive)
same,GI50,COLO 205,> 100 µM (inactive)
same,GI50,DU-145,> 100 µM (inactive)
same,GI50,EKVX,> 100 µM (inactive)
same,GI50,HCC 2998,> 100 µM (inactive)
same,GI50,HCT-116,> 100 µM (inactive)
same,GI50,HCT-15,> 100 µM
same,GI50,HL-60,> 100 µM (inactive)
same,GI50,HOP-62,> 100 µM (inactive)
same,GI50,HOP-92,> 100 µM (inactive)
same,GI50,HT-29,> 100 µM (inactive)
same,GI50,Hs-578T,> 100 µM (inactive)
same,GI50,IGROV-1,> 100 µM (inactive)
same,GI50,KM12,> 100 µM (inactive)
same,GI50,LOX IMVI,> 100 µM (inactive)
same,GI50,M14,> 100 µM (inactive)
same,GI50,MCF7,> 100 µM (inactive)
same,GI50,MDA-MB-231,> 100 µM (inactive)
same,GI50,MDA-MB-435,> 100 µM (inactive)
same,GI50,MDA-N,> 100 µM (inactive)
same,GI50,MOLT-4,> 100 µM (inactive)
same,GI50,NCI-H226,> 100 µM (inactive)
same,GI50,NCI-H23,> 100 µM (inactive)
same,GI50,NCI-H460,> 100 µM (inactive)
same,GI50,NCI-H522,> 100 µM (inactive)
same,GI50,NCI/ADR-RES,> 100 µM (inactive)
same,GI50,OVCAR-3,> 100 µM (inactive)
same,GI50,OVCAR-4,> 100 µM (inactive)
same,GI50,OVCAR-5,> 100 µM (inactive)
same,GI50,OVCAR-8,> 100 µM (inactive)
same,GI50,PC-3,> 100 µM (inactive)
same,GI50,RXF 393,> 100 µM (inactive)
same,GI50,SF-268,> 100 µM (inactive)
same,GI50,SF-295,> 100 µM (inactive)
same,GI50,SF-539,> 100 µM (inactive)
same,GI50,SK-MEL-28,> 100 µM (inactive)
same,GI50,SK-MEL-2,> 100 µM (inactive)
same,GI50,SK-MEL-5,> 100 µM (inactive)
same,GI50,SK-OV-3,> 100 µM (inactive)
same,GI50,SN12C,> 100 µM (inactive)
same,GI50,SNB-19,> 100 µM (inactive)
same,GI50,SNB-75,> 100 µM (inactive)
same,GI50,SR,25.6 µM (inactive)
same,GI50,SW-620,> 100 µM (inactive)
same,GI50,TK-10,> 100 µM (inactive)
same,GI50,U-251,> 100 µM (inactive)
same,GI50,UACC-257,> 100 µM (inactive)
same,GI50,UACC-62,> 100 µM (inactive)
same,GI50,UO-31,> 100 µM (inactive)
